Source: patent US20100210597A1, “C21-Deoxy Ansamycin Derivatives as Antitumor Agents” (priority 2007, published 2010)
Several values for one entry are separate records, joined by “and”; a condition that tells them apart may be missing. Equal entries are not always repeated.

Legend:
[1] = In vivo pharmacokinetic assay in mice; design: species or system mouse; settings: female CD-1 mice
Protocol: The test compound was prepared directly in endotoxin free water. A single dose of 10 mg/kg p.o. or 3 mg/kg i.v. was administered to groups of female CD1 mice (3 mice for each compound per time point). Dose volumes were 10 mL/kg for both oral and intravenous administration. At 4 minutes and 0.25, 0.5, 1, 2, 4, 8, 24 hours groups were sacrificed and plasma was collected from each mouse for further analysis. For oral dosing, a single dose of Test Article was administered via oral gavage to the mice. For intravenous dosing, a single dose of Test article was administered intravenously to mice via the tail veins.
The concentration of the relevant compounds in the plasma samples was determined by HPLC with MS detection.
• Mass spectrometer: API 3200 Q Trap triple quadruple mass spectrometer • Liquid chromatography: Agilent 1200/PAL HTC Autosampler • Ionization Mode: Electrospray (may be changed depending on the TA) • Monitoring: Multiple Reaction Monitoring • LC chromatography BetaBastic-8, 50×2.1 mm, 5 μm (may separation: be changed depending on the TA)
Based on the peak area ratios of test article to an internal standard, 17-Methoxyethylamino Geldanamycin (Schnur et al., 1995), concentrations of an unknown sample were obtained by a calibration curve.
Test plasma sample (0.05 ml), analyte free mouse whole serum (0.05 ml), internal standard solution (0.1 ml of 10 mg/mL 17-Methoxyethylamino geldanamycin (Schnur et al., 1995) dissolved in methanol) and acetonitrile (0.5 ml) were pipetted into a 2-mL polypropylene tube and the contents of the tubes were mixed for a minimum of 5 minutes (Vibrax mixer). The tubes were then centrifuged in a microfuge for a minimum of 2 minutes at 12,000 rpm. 0.1 ml of the solvent layer was transferred into a 2-mL polypropylene tube containing 1 mL acid diluent (0.1% formic acid). The tubes were then mixed for a minimum of 5 minutes (Vibrax mixer) and then centrifuged at approximately 3500 rpm for 5 minutes. The extracts were transferred to auto-sampler vials and placed in the auto sampler tray which was set at ambient temperature. The auto-sampler was programmed to inject a 0.005 ml aliquot of each extract onto the analytical column.
In vivo confirmation of the cleavage of 20 to the parent molecule, 17, was carried out as described in the general methods.
Female CD-1 mice were given single doses of 20, either intravenously at 3 mg/kg, or orally at 10 mg/kg. Plasma samples were then collected at 8 time points (0.067, 0.25, 0.5, 1, 2, 4, 8 and 24 h postdose) over a 24-h period. The amounts of 20 and 17 in the samples were then analysed. […] After iv administration, 20 was only detected up to 0.25 hours after dosing, whilst 17 was detected up to 4 hours after dosing.

[2] = Whole blood cleavage assay, mouse blood; assay type: in vitro ADME; settings: 10 uM, 37° C., two hours
Protocol: Human whole blood (single donor, batch HBE4534) was obtained from First Link UK Ltd. Mouse whole blood (pool of 10, batch 07-2470) was obtained from Harlan UK. Blood was collected into tubes containing EDTA as anticoagulant and shipped on ice. Blood was used on the day of arrival. In the case of human whole blood incubations were undertaken both on the fresh blood and also after freezing the blood followed by thawing. Control compounds were Lidocaine, Bisacodyl and Simvastatin.
All test compounds were incubated at 10 uM in whole blood at 37° C. At selected time points, 0.1 ml of blood was mixed with 0.3 ml of acetonitrile and vortexed immediately. All samples were centrifuged and supernatant were diluted with same volume of deionized water. […] For 20 sample analysis, mass spectrometry monitored both 17 and 20. […]
The Half life, for the disappearance of 20, was determined according to the relationship: […]
Blood cleavage assays were run to confirm that 20 acts as a prodrug and cleaves to produce compound 17 when incubated with human and mouse blood, as described in the general methods. The compound was incubated in human or mouse blood with samples removed over two hours, and analysed by LC MS/MS for presence of 20 and 17 (see FIG. 6). […] Due to the differing responses of 17 and 20 on mass spectrometry it was not possible to quantify the extent of conversion of 20 to 17.

[3] = Aqueous solubility by direct dissolution; assay type: physicochemical; settings: water, deionised water; limit not tested
Excerpt: It is not possible to measure the solubility of 20 and 23 by this method due to their intrinsic high aqueous solubility.

DU145 = assay: Monolayer proliferation assay (modified propidium iodide), DU145; assay type: cell-based, human; settings: average of 2 experiments
Protocol: In vitro evaluation of compounds for anticancer activity in a panel of human tumour cell lines in a monolayer proliferation assay was carried out at the Oncotest Testing Facility, Institute for Experimental Oncology, Oncotest GmbH, Freiburg.
The Oncotest cell lines are established from human tumor xenografts as described by Roth et al., (1999). The origin of the donor xenografts is described by Fiebig et al., (1999). Other cell lines are either obtained from the NCl (DU145, MCF-7) or purchased from DSMZ, Braunschweig, Germany.
All cell lines, unless otherwise specified, are grown at 37° C. in a humidified atmosphere (95% air, 5% CO2) in a ‘ready-mix’ medium containing RPMI 1640 medium, 10% fetal calf serum, and 0.1 mg/mL gentamicin (PAA, Cölbe, Germany).
A modified propidium iodide assay was used to assess the effects of the test compound(s) on the growth of six human tumour cell lines (Dengler et al., (1995)).
Briefly, cells are harvested from exponential phase cultures by trypsinization, counted and plated in 96 well flat-bottomed microtitre plates at a cell density dependent on the cell line (5-10.000 viable cells/well). After 24 h recovery to allow the cells to resume exponential growth, 0.010 mL of culture medium (6 control wells per plate) or culture medium containing macbecin were added to the wells. Each concentration is plated in triplicate. Compounds were applied in two concentrations (0.001 mM and 0.01 mM). Following 4 days of continuous exposure, cell culture medium with or without test compound was replaced by 0.2 mL of an aqueous propidium iodide (P1) solution (7 mg/L). To measure the proportion of living cells, cells were permeabilized by freezing the plates. After thawing the plates, fluorescence was measured using the Cytofluor 4000 microplate reader (excitation 530 nm, emission 620 nm), giving a direct relationship to the total number of viable cells.
Growth inhibition is expressed as treated/control×100 (% T/C).
In vitro evaluation of the test compound, 20, for anticancer activity in a panel of human tumour cell lines in a monolayer proliferation assay was carried out as described in the general methods using a modified propidium iodide assay.

In the case of `CO[C@H]1C[C@H](C)Cc2cc(cc(OP(=O)(O)O)c2)NC(=O)/C(C)=C/CC[C@H](C)[C@@H](OC(N)=O)/C(C)=C/[C@H](C)[C@H]1O` [Compound 20, 4,5-dihydro-11-O-demethyl-15-demethoxy-18,21-didehydro-21-deoxomacbecin-18-phosphate], the “detected in plasma up to (time after dosing)” value ([1]; single intravenous dose of 20 at 3 mg/kg) is reported as “up to 0.25 hours”, the “detected in plasma up to (time after dosing)” value ([1]; single oral dose of 20 at 10 mg/kg) is reported as “not seen in the plasma” and the conversion in blood [2] is reported as “act as a prodrug and release 17”. The solubility [3] was ≥ 10000 µg/mL and ≥ 17000 µM, the “Test/Control (%) at drug concentration (μg/mL)” value (from here on “Test/Control (%)”) (DU145; DU145, 0.01 μg/mL) was 99% and the “Test/Control (%)” value (DU145; DU145, 0.1 μg/mL) was 53%. For the same compound, the “Test/Control (%)” value (DU145; DU145, 1 μg/mL) was 8%, the “Test/Control (%)” value (DU145; DU145, 10 μg/mL) was 9% and the “Test/Control (%)” value (DU145; DU145, 100 μg/mL) was 3%.
